Data published in patent US20150183846A1, “HUMAN FUSION PROTEINS COMPRISING SINGLE CHAIN TNFALPHA AND TARGETING DOMAINS” (Scil Proteins GmbH, priority 2012, published 2015).
“Also recorded” adds a separate entry of the source.

Key:
NHDF cells = test: Binding (staining) on vital NHDF cells; type: cell-based, human; details: NHDF cells (low ED-B), up to 10 nM
Method: (§1) ED-B is expressed in tumors and the matrix on embryonic cells. The binding of the cancer target-binding protein fused to scTNFalpha to the matrix of cell culture cells was compared to the binding of the control and non-targeting domain protein fused to scTNFalpha (64179). Different cell culture cells were analyzed, including normal human fetal lung fibroblast cells having high expression levels of ED-B (Wi38 cells), and normal human dermal fibroblasts having low level of ED-B (NHDF). To analyze the in vitro binding, 64177, 83563, 83564 and 64179 were investigated on vital Wi38 cells.
(§2) Fusion proteins (single concentration of 1, 5 and 10 nM) or control protein 64179 (1, 5 and 10 nM) were incubated (1 h, 37° C.) with Wi38 and NHDF cells (60,000 cells/ml; from ATCC), followed by fixation with methanol, blocking (5% Horse serum/PBS); incubation with an anti-TNFalpha-antibody (Peprotech 500-P64, 1:500) and additionally with a secondary Alexa488 conjugated antibody (obtained from Invitrogen A11008, 1:1000). The nuclei were stained with DAPI.

F9-tumor tissue = test: Binding on F9 teratocarcinoma tumor slices; set-up: species or system mouse
Method: ED-B accumulates around neovascular structures, like tumor blood vessels (Tarli et al., 1999, Blood 94: 192-198). Different concentrations of fusion proteins were compared with respect to ED-B target binding on F9 teratocarcinoma slides. Slices of a thickness of 6 μm were fixed with ice cold absolute acetone. After blocking with 5% horse serum, slices were incubated with 1, 5 and 10 nM of fusion proteins 64177, 83563, 83564 and the non-ED-B targeted protein 64179, respectively. Fusion proteins were probed by anti-TNFalpha-antibody (Peprotech 500-P64, 1:500) and additional with a secondary Alexa488 conjugated antibody (Invitrogen, A11008, 1:1000). CD31 (PECAM-1) is a widely used endothelial cell marker. Therefore, vessels were stained by use of an anti-mouse CD31-antibody (10 μg/ml; Abcam, ab56299) and an Alexa594-conjugated secondary antibody.

L929 cells = test: L929 apoptosis (cytotoxicity) assay of TNFalpha activity; type: cell-based; details: actinomycin D sensitized cells, 24 h
Source text: The physiological TNFalpha-activity of an Affilin-scTNF-fusion protein has been determined using the L929 apoptosis assay (Flick et al., 1984 J. Immunol. Methods. 68:167-175). In this assay, the effector part of the fusion protein (scTNFalpha, three soluble TNFalpha monomers connected via peptide linkers) efficiently stimulates cell death in actinomycin D sensitized cells at EC50 values in the picomolar range.
Cells were resuspended in suitable medium containing FBS and antibiotics. A cell suspension of a density of 3.5×10^5 cells/ml in medium containing 2% FCS was seeded into the wells of a 96 well standard cell culture plate. After incubation, the culture medium was removed and medium containing 4% FBS, Actinomycin D and antibiotics was added to each well. […] After a further incubation of 24 h, the metabolic activity as a measure of cell survival was determined using WST-1 reagent (Roche). […] The quantitative evaluation is based on the relative potency against a mTNFalpha-standard.
In this embodiment, an L929 assay was used as activity assay versus mouse TNFalpha as internal standard (mTNFalpha in the figure). […] Potency has been determined in several independent assays and is determined by parallel line method with PLA2.0 software relative to the internal control mTNFalpha. […]

MDA-MB 231 tumor = test: In vivo efficacy study in breast cancer (MDA-MB 231) tumor bearing mice, combination with Lipodox; set-up: species or system mouse
Source text: The efficacy study is intended to analyze the effect of targeted fusion protein 83564 combined with a chemotherapeutic on the tumor size in a breast cancer model. As model system for the in vivo efficacy study, the breast cancer cell line MDA-MB 231 (ATCC® HTB-26™; patient derived model, obtained from ATCC) was used. Cells were implanted subcutaneously in the left flank of female immunodeficient NMRI nu/nu mice from Harlan. For this study, Lipodox was used as exemplary cytotoxic drug; any other cytotoxic agents could be used instead. The chemotherapeutic Lipodox from Sun Pharma Global FZE is composed of doxorubicin hydrochloride encapsulated in long circulating pegylated liposomes. It is indicated as monotherapy for the treatment of metastatic breast cancer with increased cardiac risk.
In order to show the efficacy of Affilin-scTNFalpha-fusion protein 83564, mice carrying an MDA-MB 231 tumor with an initial size between 50 mm^3 and 200 mm^3 were intravenously treated with 75 μg/kg/day 83564 combined with Lipodox at a dose of 1.5 mg/kg/day (closed squares in FIG. 8). As control substance, 75 μg/kg/day 64179 (Affilin-scTNFalpha-fusion protein without targeting) combined with Lipodox at a dose of 1.5 mg/kg/day was injected intravenously into separate mice (closed circles in FIG. 8). […] During the whole efficacy study, the relative tumor volume was analyzed.

Wi38 cells = test: Binding (staining) on vital Wi38 fibroblast cells; type: cell-based, human; details: Wi38 cells (high ED-B), up to 10 nM, anti-TNFalpha-antibody detection
Method: as §1, §2

[1] = In vivo toxicity study in naive CD1 mice, single intravenous dose; details: i.v., mTNFalpha 470 μg/kg equimolar to 650 μg/kg 64177
Method: Two groups of 3 male and 3 female mice for each treatment dose were recruited. One group of 3 male and 3 female mice for each treatment dose was sacrificed 24 h after the intravenous administration to obtain information on acute TNFalpha mediated effects. […] Parameters that were analyzed are: clinical signs (local tolerance, systemic tolerance, mortality, behavior, external appearance, faeces), body weight, body temperature, food consumption, hematology, clinical chemistry, macroscopic post mortem findings, organ weights and histopathology of dedicated organs.

Substance | staining on vital NHDF cells (NHDF cells) | accumulation close to F9-tumor vessels (co-staining with anti-CD31) (F9-tumor tissue; 1 nM fusion protein) | binding on F9-tumor tissue slices (F9-tumor tissue; 1 nM, 5 nM and 10 nM) | activity of the scTNFalpha part relative to mouse TNFalpha internal standard (L929 cells) | relative tumor volume at day 28 (MDA-MB 231 tumor; 75 μg/kg/day fusion protein i.v. combined with Lipodox 1.5 mg/kg/day) [mm^3] | effect on tumor growth compared with the other groups (MDA-MB 231 tumor; fusion protein combined with Lipodox 1.5 mg/kg/day) | staining of ED-B on vital Wi38 cells (Wi38 cells) | incidence and/or severity of toxic effects, mTNFalpha- versus 64177-treated animals [1]
64179: control fusion protein of a non-binding ubiquitin dimer (Ub2) and mouse scTNFalpha (SEQ ID NO: 16) [compound 64179, reference compound] | not detectable | no accumulation in F9-tumor vessels | not detected | at least the same activity compared to the mouse TNFalpha | 651 | had the effect on growth of breast cancer as Lipodox alone | No unspecific staining; also recorded: not detectable | –
mTNFalpha: murine recombinant TNFalpha used as internal standard and reference item [reference compound] | – | – | – | – | – | – | – | generally more pronounced
